In article PMC6050274, “Buparlisib is a brain penetrable pan-PI3K inhibitor” (Scientific Reports, 2018):
“And” between values parts separate entries of the source, which are not always exact repeats. Equal entries are not always repeated. Where two headings read alike, the source gives them in different places.

Assays:
[1] = biological target: T1, murine P-gp (Abcb1a/Mdr1a) (Mus musculus, UniProt P21447); experiment: Concentration equilibrium transport assay (CETA), LLC-Mdr1a; assay type: in vitro ADME; details: 100 nM
T1 construct: expressed in transfected cells; host or cells: LLC-PK1 (LLC-Mdr1a)
Excerpt: Figure 1 Analysis of buparlisib substrate affinity for ABC transporters using in vitro transport assays. (A) The chemical structure of buparlisib. (B) A conventional transport assay (CTA) using LLC-PK1 cells in presence of zosuquidar to block endogenous (porcine) P-gp activity. […] (C) Concentration equilibrium transport assays (CETAs) using MDCK or LLC cells that overexpress murine BCRP, (Bcrp1), human BCRP, murine P-gp (Mdr1a) or human P-gp (MDR1). […] The P-gp inhibitor zosuquidar was used in all MDCK cell lines to inhibit endogenous P-gp activity and in LLC cell lines to validate possible P-gp-mediated translocations. […]
Conventional bidirectional transport assays (CTAs) and concentration equilibrium transport assays (CETAs) were performed as described previously. […] Transwell leakiness was determined as Carboxyl-[^14C]-inulin translocation exceeding 1.5% per hour and these wells were excluded from the analysis. […]
As described in detail before, CETA results were analysed with the General linear model repeated measures procedure of SPSS (v22; SPSS Inc, Chicago, IL)[25]. […] The standard error of the oral bioavailability was calculated using the formula below: SEF=F(SEAUCp.o./AUCp.o.)^2+(SEAUCi.v./AUCi.v.)^2 Buparlisib concentrations in WT and transporter knockout mice in vivo were compared using one-way analysis of variance followed by post hoc Bonferroni tests. […]

[2] = Plasma pharmacokinetics after i.v. and oral administration in male and female mice; assay type: in vivo, FVB mice; details: for bioavailability: p.o. (5 mg/kg) vs i.v. (2 mg/kg), read-out: F (oral bioavailability); for Vd/F: read-out: Vz/F
Procedure: Finally, we studied the pharmacokinetics of buparlisib in male and female mice and assessed the oral bioavailability in both genders by comparing the area-under-the-plasma concentration-time-curves (AUCs) following intravenous and oral administration. Both after oral and i.v. administration there was no difference in pharmacokinetics between male and female mice (Fig. 3C, Table 1).
The pharmacokinetics of buparlisib were analysed in WT, Abcg2^−/−, Abcb1a/b^−/− and Abcb1a/b; Abcg2^−/− FVB mice. All knockout mice strains have been developed within our institute[41]–[43]. For i.v. administration, buparlisib was dissolved in DMSO and injected at a dose of 2 mg/kg. For oral administration, buparlisib was formulated in DMSO:Cremophor EL:water (1:1:8 v/v/v) and administered at 1, 2 or 5 mg/kg as indicated. Tail vein bleeding was used to collect blood at intermediate time points, whereas at the last time point blood was drawn by cardiac puncture and various tissue were collected. Plasma was obtained from whole blood by centrifugation (5 min, 5,000 rpm, 4 °C). After weighing, tissues were homogenized using a FastPrep®-24 (MP-Biomedicals, NY) in 1% (w/v) bovine serum albumin in water. Buparlisib was extracted from plasma and tissue homogenate by liquid-liquid extraction with ethyl acetate using AZD8055 as an internal standard.
Buparlisib was measured in samples from in vitro transport assays and in vivo pharmacokinetic studies using an LC-MS/MS system comprised of an UltiMate 3000 LC Systems (Dionex, Sunnyvale, CA) and an API 4000 mass spectrometer (Sciex, Framingham, MA). Samples were run through a Securityguard C18 pre-column (Phenomenex, Utrecht, The Netherlands) prior to separation on a ZORBAX Extend-C18 column (Agilent, Santa Clara, CA). Elution was done using a in a 5 minute gradient from 20% to 95% B (mobile phase A was 0.1% HCOOH in water (v/v) and mobile phase B was methanol). 95% B was maintained for 3 min followed by re-equilibration at 20% B. Multiple reaction monitoring was performed at 411.3/367.2 (buparlisib) and 418.2/138.4 (AZD8055). Analyst® 1.6.2 software (AB Sciex; Foster City, CA) was used for system control and data analysis.
As described in detail before, CETA results were analysed with the General linear model repeated measures procedure of SPSS (v22; SPSS Inc, Chicago, IL)[25]. PK solver was used to determine pharmacokinetic parameters. The standard error of the oral bioavailability was calculated using the formula below: SEF=F(SEAUCp.o./AUCp.o.)^2+(SEAUCi.v./AUCi.v.)^2 Buparlisib concentrations in WT and transporter knockout mice in vivo were compared using one-way analysis of variance followed by post hoc Bonferroni tests. Statistical differences between the buparlisib PK parameters in male and female mice were calculated as Bonferroni corrected p-values using multiple Student’s t-tests. Differences were considered statistically significant when p < 0.05.

[3] = FVB, mouse, plasma, iv, i.v. (2 mg/kg), female
[4] = FVB, mouse, plasma, iv, i.v. (2 mg/kg), male
[5] = FVB, mouse, plasma, po, p.o. (5 mg/kg), female
[6] = FVB, mouse, plasma, po, p.o. (5 mg/kg), male

T1 sequence (P21447 whole entry): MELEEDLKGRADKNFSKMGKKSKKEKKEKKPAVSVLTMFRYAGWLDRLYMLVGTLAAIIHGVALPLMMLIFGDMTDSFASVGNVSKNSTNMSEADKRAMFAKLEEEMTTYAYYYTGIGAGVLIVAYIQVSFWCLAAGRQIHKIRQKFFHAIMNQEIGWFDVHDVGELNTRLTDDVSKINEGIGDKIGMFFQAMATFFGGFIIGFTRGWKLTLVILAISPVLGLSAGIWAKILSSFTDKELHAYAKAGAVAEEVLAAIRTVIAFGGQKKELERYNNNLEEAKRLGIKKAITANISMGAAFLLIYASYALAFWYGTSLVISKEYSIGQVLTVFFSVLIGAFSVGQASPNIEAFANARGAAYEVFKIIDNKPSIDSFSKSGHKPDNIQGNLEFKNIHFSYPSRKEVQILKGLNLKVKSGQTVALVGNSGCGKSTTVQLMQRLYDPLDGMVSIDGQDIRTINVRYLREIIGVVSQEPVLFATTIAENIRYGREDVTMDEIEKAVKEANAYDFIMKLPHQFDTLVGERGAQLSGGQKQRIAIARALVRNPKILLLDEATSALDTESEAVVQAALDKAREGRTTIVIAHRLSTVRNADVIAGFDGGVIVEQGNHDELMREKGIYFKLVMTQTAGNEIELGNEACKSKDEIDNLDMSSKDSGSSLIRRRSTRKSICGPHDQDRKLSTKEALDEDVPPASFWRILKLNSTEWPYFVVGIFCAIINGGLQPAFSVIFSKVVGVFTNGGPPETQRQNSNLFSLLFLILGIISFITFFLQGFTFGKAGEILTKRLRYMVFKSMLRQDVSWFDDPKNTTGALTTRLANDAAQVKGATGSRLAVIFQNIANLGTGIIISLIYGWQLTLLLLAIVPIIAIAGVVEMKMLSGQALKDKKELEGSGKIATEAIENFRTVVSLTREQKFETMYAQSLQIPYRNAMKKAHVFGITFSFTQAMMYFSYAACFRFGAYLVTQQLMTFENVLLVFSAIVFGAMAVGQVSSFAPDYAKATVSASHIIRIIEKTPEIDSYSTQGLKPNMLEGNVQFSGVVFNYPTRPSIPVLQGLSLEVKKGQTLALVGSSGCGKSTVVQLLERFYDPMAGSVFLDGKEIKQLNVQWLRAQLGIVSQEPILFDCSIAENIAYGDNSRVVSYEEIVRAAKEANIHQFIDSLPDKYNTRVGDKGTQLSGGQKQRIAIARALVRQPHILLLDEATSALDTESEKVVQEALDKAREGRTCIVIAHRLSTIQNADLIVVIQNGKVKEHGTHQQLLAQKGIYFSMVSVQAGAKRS

In the case of `Nc1cc(C(F)(F)F)c(-c2cc(N3CCOCC3)nc(N3CCOCC3)n2)cn1` [buparlisib], the “substrate of murine P-gp” value [1] is reported as “not a substrate”, the Cmax [2, 3] is reported as 1900 ± 410 ng/mL and the half-life [2, 3] is reported as 1.6 ± 0.07 h. For the same molecule, the Vd ([2]; FVB, mouse, plasma, iv, i.v. (2 mg/kg), female, read-out: Vz) was 0.86 ± 0.14 L/kg, the Cmax [2, 4] was 2100 ± 190 ng/mL and the half-life [2, 4] was 1.67 ± 0.07 h. For the same molecule, the Vd ([2]; FVB, mouse, plasma, iv, i.v. (2 mg/kg), male, read-out: Vz) was 0.8 ± 0.23 L/kg, the concentration at 24 h ([2]; FVB, mouse, plasma, oral, mice, 5 mg/kg, read-out: plasma level after 24 h) was < 1 ng/mL and < 2.4 nM and the bioavailability ([2]; FVB, mouse, plasma, oral, female) was 112 ± 21.1%. It also gave a bioavailability ([2]; FVB, mouse, plasma, oral, male) of 103 ± 26.1%, a CL/F [2, 5] of 5.33 mL/min/kg and a Cmax [2, 5] of 3000 ± 490 ng/mL. For the same molecule, the Tmax [2, 5] was 0.67 ± 0.39 h, the half-life [2, 5] was 1.4 ± 0.04 h and the Vd/F [2, 5] was 0.63 ± 0.08 L/kg. The CL/F [2, 6] was 5.17 mL/min/kg, the Cmax [2, 6] was 3300 ± 1300 ng/mL and the Tmax [2, 6] was 1 h. For the same molecule, the half-life [2, 6] was 1.44 ± 0.06 h, the Vd/F [2, 6] was 0.64 ± 0.03 L/kg and the oral bioavailability ([2]; both genders, dose-corrected AUC oral vs i.v.) was “complete”. For the same molecule, the Vd ([2]; both sexes, FVB, mouse, plasma, intravenous, 2 mg/kg, mice, read-out: volume of distribution) was < 1 L/kg, the CL ([2]; i.v. (2 mg/kg), female) was 0.37 ± 0.06 L/kg^.h and the “Plasma AUC 0-∞” value ([2]; i.v. (2 mg/kg), female) was 5600 ± 860 ng/ml^.h. The CL ([2]; i.v. (2 mg/kg), male) was 0.33 ± 0.09 L/kg^.h, the “Plasma AUC 0-∞” value ([2]; i.v. (2 mg/kg), male) was 6300 ± 1500 ng/ml^.h and the “difference in pharmacokinetics between male and female mice” value ([2]; oral and i.v. administration) was “no difference”. For the same molecule, the “Plasma AUC 0-∞” value ([2]; p.o. (5 mg/kg), female) was 16000 ± 1700 ng/ml^.h and the “Plasma AUC 0-∞” value ([2]; p.o. (5 mg/kg), male) was 16000 ± 1200 ng/ml^.h.
